Series [1] can be described thus: Inhibition of human full length HA-tagged CD95/human full length Myc-tagged PLCgamma1 protein-protein interaction transfected in HEK293T cells incubated for 4 hrs by renilla luciferase based protein-fragment complementation assay. Type of series: cell-based.
For a further series, the species on record is Homo sapiens. Nature of the series: Selectivity ratio of IC50 for human full length HA-tagged CD95/FADD (unknown origin) protein-protein interaction to IC50 for human full length HA-tagged CD95/human full length Myc-tagged PLCgamma1 protein-protein interaction.
Series [2] can be described thus: Inhibition of human full length HA-tagged CD95/FADD (unknown origin) protein-protein interaction transfected in HEK293T cells incubated for 4 hrs by renilla luciferase based protein-fragment complementation assay. Type of series: cell-based.
In a further series the test system is CCRF-CEM. Briefly: Cytotoxicity in human CEM cells assessed as reduction in cell viability incubated for 24 hrs by MTT assay. It counts as cell-based.
Series [3] addresses T1, Tumor necrosis factor receptor superfamily member 6 (Homo sapiens) (UniProt P25445).
T1 sequence (whole entry): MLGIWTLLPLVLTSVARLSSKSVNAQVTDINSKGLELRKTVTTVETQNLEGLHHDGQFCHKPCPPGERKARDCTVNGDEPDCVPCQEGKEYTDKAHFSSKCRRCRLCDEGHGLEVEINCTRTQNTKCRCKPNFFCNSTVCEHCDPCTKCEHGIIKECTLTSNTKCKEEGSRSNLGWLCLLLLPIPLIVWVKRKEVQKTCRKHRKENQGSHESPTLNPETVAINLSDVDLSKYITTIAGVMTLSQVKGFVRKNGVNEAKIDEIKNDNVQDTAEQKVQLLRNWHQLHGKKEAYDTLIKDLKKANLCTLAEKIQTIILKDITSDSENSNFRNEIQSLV
Briefly: Inhibition of s-CD95L(unknown origin)-stimulated cell migration of human MDA-MB-231 cells at 10 uM incubated for 24 hrs by Boyden chambers assay. Type of series: cell-based.

For series [4], the target named is T1, Tumor necrosis factor receptor superfamily member 6 (Homo sapiens). Briefly: Inhibition of s-CD95L(unknown origin)-stimulated cell migration of human MDA-MB-231 cells at 10 uM incubated for 24 hrs by Giemsa-staining based assay.
For series [5] the target is unchanged. Nature of the series: Inhibition of s-CD95L(unknown origin)-stimulated cell migration of human Th17 cells at 10 uM incubated for 24 hrs by Boyden chambers assay.
Series [6] in a line: Half life in human whole blood. Type of series: ADME, tissue-based.
Series [7] concerns the target T2, 1-phosphatidylinositol 4,5-bisphosphate phosphodiesterase gamma-1 (Homo sapiens, UniProt P19174).
T2 sequence (P19174 whole entry): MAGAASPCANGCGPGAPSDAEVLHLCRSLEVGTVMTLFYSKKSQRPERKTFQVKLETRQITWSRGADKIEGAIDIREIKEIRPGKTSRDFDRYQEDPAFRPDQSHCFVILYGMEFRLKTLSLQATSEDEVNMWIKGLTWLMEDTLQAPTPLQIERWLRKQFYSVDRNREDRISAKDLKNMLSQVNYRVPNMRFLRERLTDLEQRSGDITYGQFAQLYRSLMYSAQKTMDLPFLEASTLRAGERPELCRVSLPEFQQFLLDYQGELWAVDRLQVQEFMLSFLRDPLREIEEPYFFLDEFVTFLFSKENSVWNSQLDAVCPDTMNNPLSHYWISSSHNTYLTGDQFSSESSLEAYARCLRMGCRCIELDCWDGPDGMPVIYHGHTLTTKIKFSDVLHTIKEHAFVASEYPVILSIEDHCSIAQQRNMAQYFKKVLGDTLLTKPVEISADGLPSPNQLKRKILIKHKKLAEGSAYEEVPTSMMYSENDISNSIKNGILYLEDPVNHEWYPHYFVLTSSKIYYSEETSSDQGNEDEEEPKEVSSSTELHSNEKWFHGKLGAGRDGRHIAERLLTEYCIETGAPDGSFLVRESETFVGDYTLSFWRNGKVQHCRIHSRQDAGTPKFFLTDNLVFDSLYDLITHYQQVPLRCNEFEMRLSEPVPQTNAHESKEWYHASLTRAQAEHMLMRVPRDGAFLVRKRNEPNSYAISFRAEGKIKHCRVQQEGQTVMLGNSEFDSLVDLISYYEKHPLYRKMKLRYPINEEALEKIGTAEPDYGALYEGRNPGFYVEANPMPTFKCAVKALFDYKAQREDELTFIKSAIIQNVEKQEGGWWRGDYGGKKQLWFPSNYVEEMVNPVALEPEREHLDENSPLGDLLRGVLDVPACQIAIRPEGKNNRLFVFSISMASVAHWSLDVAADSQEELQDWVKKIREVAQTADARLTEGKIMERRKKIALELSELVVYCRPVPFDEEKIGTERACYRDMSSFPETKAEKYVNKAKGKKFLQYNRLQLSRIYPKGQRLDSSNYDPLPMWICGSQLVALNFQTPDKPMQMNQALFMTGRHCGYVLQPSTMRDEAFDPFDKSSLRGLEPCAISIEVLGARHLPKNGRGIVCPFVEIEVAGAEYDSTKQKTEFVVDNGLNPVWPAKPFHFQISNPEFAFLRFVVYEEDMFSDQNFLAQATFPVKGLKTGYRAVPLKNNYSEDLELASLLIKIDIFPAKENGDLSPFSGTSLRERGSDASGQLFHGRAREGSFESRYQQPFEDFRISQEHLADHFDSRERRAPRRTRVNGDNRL
Nature of the series: (§1) Binding affinity to human full length Myc-tagged PLCgamma1 transfected in HEK293T cells by pull down assay. It counts as cell-based.

Series [8] addresses T1, Tumor necrosis factor receptor superfamily member 6 (Homo sapiens). Briefly: Inhibition of s-CD95L(unknown origin)-stimulated cell migration of human Th17 cells at 1 uM incubated for 24 hrs by Boyden chambers assay.
The target is the same in series [9]. Briefly: Inhibition of s-CD95L(unknown origin)-stimulated cell migration of human MDA-MB-231 cells at 1 uM incubated for 24 hrs by Giemsa-staining based assay.
For series [10] the target is unchanged. Nature of the series: Inhibition of s-CD95L(unknown origin)-stimulated cell migration of human MDA-MB-231 cells at 1 uM incubated for 24 hrs by Boyden chambers assay. Type of series: cell-based.
Series [11] has as its target T3, 1-phosphatidylinositol 4,5-bisphosphate phosphodiesterase gamma-1 (Homo sapiens) (UniProt P19174).
T3 sequence (whole entry): T2 sequence (P19174 whole entry)
The description is as §1. Type of series: cell-based.

Consider nine compounds from ChEMBL document CHEMBL4433261, “Synthesis of peptidomimetics and chemo-biological tools for CD95/PLCγ1 interaction analysis” (Bioorg Med Chem Lett, 2019).

The source made the active and inactive calls. The rule behind the calls is not given here. Some results are limits rather than exact numbers.

The IC50 is the midpoint of a concentration-inhibition curve. In the case of `N=C(N)NCCCCC(=O)N(CCNC(=O)[C@@H](N)CS)[C@@H](CCCCN)C(=O)NCCN(C(=O)CCc1c[nH]cn1)[C@@H](CCCNC(=N)N)C(=O)NCCNC(=O)CCCCCN`, the values for the IC50 in series [1] and in series [2] (read-out: IC50) were 400 µM and 448 µM, respectively. In addition, the Ratio IC50 in the series listed under Homo sapiens turned out to be 1.1.
For `CCCCCCCCCCCCCCCCCC(=O)N(CCN)[C@@H](CCCNC(=N)N)C(=O)NCCN(C(=O)CCCCCN)[C@@H](Cc1c[nH]cn1)C(=O)NCCN(C(=O)CCCCNC(=N)N)[C@@H](CCCCN)C(N)=O.O=C(O)C(F)(F)F.O=C(O)C(F)(F)F.O=C(O)C(F)(F)F.O=C(O)C(F)(F)F.O=C(O)C(F)(F)F`, the IC50 was determined as 35 µM in series [1] and 39 µM in series [2] (read-out: IC50). In addition, the Activity entry with CCRF-CEM is recorded as “Toxic”. Moreover, in the series filed under Homo sapiens, the Ratio IC50 is 1.1.
Turning to `N=C(N)NCCCCC(=O)N(CCNC(=O)[C@H](Cc1c[nH]cn1)N(CCNC(=O)[C@H](CCCNC(=N)N)N(CCN)C(=O)CCS)C(=O)CCCCCN)[C@@H](CCCCN)C(N)=O`, the values for the IC50 in series [1] and in series [2] (read-out: IC50) were 75 µM and 3800 µM, respectively. For the same compound, the Ratio IC50 in the series listed under Homo sapiens was 50. Also, the inhibition result in series [3], in [4] and in series [5] was “Active” in each case.
The term half-life denotes how long it takes for the measured level to halve. A low value points to fast loss. For the compound `C[C@@H](O)[C@H](N)C(=O)NCCN(C(=O)CCS)[C@@H](CCCNC(=N)N)C(=O)NCCN(C(=O)CCCCCN)[C@@H](Cc1c[nH]cn1)C(=O)NCCN(C(=O)CCCCNC(=N)N)[C@@H](CCCCN)C(N)=O`, the IC50 in [1] was 77 µM; in series [2], “Not Active”. Further, the Ratio IC50 in the series filed under Homo sapiens was greater than 100. In addition, the inhibition entry in series [3], in series [4] and in series [5] was “Active” in each case. Further, the half-life in series [6] is 11 to 11.1 h.
As for `C[C@@H](O)CC(=O)N(CCN)[C@@H](CS)C(=O)NCCN(C(=O)CCCCNC(=N)N)[C@@H](CCCCN)C(=O)NCCN(C(=O)CCc1c[nH]cn1)[C@@H](CCCNC(=N)N)C(=O)NCCNC(=O)CCCCCN`, the IC50 in series [1] is 229 µM; in series [2] (read-out: IC50), 319 µM. Further, the Ratio IC50 in the series listed under Homo sapiens came to 1.4.
As a reminder, the EC50 is the concentration giving half of the maximal effect. Low values mean an effect from little substance, high ones a need for much substance. Consider `C[C@@H](O)[C@H](NC(=O)CCCC[C@@H]1SC[C@@H]2NC(=O)N[C@@H]21)C(=O)NCCN(C(=O)CCS)[C@@H](CCCNC(=N)N)C(=O)NCCN(C(=O)CCCCCN)[C@@H](Cc1c[nH]cn1)C(=O)NCCN(C(=O)CCCCNC(=N)N)[C@@H](CCCCN)C(N)=O`, for which the EC50 in series [7] is 25 to 50 µM.
Consider H-TCRKHRK-OH, for which the IC50 in series [1] is 35 µM; in [2], “Not Active”. The inhibition result in series [8], in [9] and in series [10] was “Active” each time. Further, the Ratio IC50 in the series listed under Homo sapiens is greater than 100. Moreover, the half-life in [6] is 3 to 3.4 h.
In the case of `C[C@@H](O)CC(=O)N[C@@H](CS)C(=O)NCCN(C(=O)CCCCNC(=N)N)[C@@H](CCCCN)C(=O)NCCN(C(=O)CCc1c[nH]cn1)[C@@H](CCCNC(=N)N)C(=O)NCCNC(=O)CCCCCN`, the results for the concentration for half-maximal inhibition (IC50) in [1] and in series [2] (read-out: IC50) were 308 µM and 629 µM, respectively. Besides, in the series filed under Homo sapiens, the Ratio IC50 came out at 2.
In the case of `N=C(N)NCCCCC(=O)N(CCNC(=O)[C@H](Cc1c[nH]cn1)N(CCNC(=O)[C@H](CCCNC(=N)N)N(CCN)C(=O)CCCC[C@@H]1SC[C@@H]2NC(=O)N[C@@H]21)C(=O)CCCCCN)[C@@H](CCCCN)C(N)=O`, the result in series [11] was Active.
